{"source": "patent US20230416247A1", "about": "“DRUG-LIKE MOLECULES AND METHODS FOR THE THERAPEUTIC TARGETING OF MICRORNA-21” (University of Washington, priority 2020, published 2023)", "type_in_all_cases": "cell-based, human", "key": {"[1]": {"tested_on": "mature miR-10b in AGS cells", "assay": "qRT-PCR of mature miR-10b in AGS cells", "conditions": "10 nmoles, 48 hours, relative to DMSO control", "method": "FIGS. 14A-14D compare levels of mature miR-10b and pre-miR-10b measured in gastric adenocarcinoma (AGS) (FIGS. 14A and 14B, respectively) and pancreatic cancer cell line (ASPC 1) (FIGS. 14C and 14D, respectively), normalized to internal controls (U6 or U8 snRNA), in the presence of 10 nmoles of palbociclib (a negative control not expected to directly affect miRNA levels) and compounds −0045 and −0052, 48 hours after incubation, relative to DMSO control, and measured by standard qRT-PCR. We notice that levels of pre-miR-10b are very low in both cell lines, rendering the data very uncertain. Statistically significant changes are labeled with asterisks.\nIn order to investigate whether inhibition was specific to miR-21, levels of mature miR-10b and pre-miR-10b were examined in the same cell lines (FIGS. 14A-14D); this is another oncogenic microRNA implicated in metastasis. […]\n(§1) Quantitative real time PCR analysis. […] RNA concentration was assessed with the NanoDrop ND-1000 spectrophotometer (ThermoFisher Scientific). […] Expression of miR-21 was assessed utilizing the TaqMan microRNA assay (Applied Biosystems). […] All experiments were performed in triplicate, with all samples normalized to the internal controls and relative expression levels calculated using the 2^ΔΔCt method."}, "[2]": {"tested_on": "miR-16, miR-28, miR-182 in gastric (AGS) cells", "assay": "qRT-PCR of miR-16, miR-28, miR-182 in AGS cells", "conditions": "24-72 hours post incubation, vs DMSO", "method": "(§2) Levels of each microRNA were measured at different times post incubation (24-72 hours) by standard qRT-PCR, normalized to internal controls (U6 or U8 snRNA), in both gastric (AGC) and pancreatic (ASPC1) cell lines. Levels of the microRNA are generally the same, within experimental uncertainty, in the absence (DMSO) or presence of compound −0052 (30).\n(§3) FIGS. 15A-15F show the levels of mature miR-16, miR-28, and miR-182 are not consistently affected by the compounds in both gastric (AGS) and pancreatic (ASPC1) cell lines, over multiple time scales (24-72 hours), relative to control where DMSO was added, but no compound.\n(§4) Cell line maintenance. Using the Cancer Cell Line Encyclopedia (CCLE), in-house cancer cell lines were screened to identify cancer and tissue types with varying levels of miR-21 expression. Experiments were performed using the human-derived cell lines AGS (gastric cancer) and AsPC-1 (pancreatic cancer). […]\nas §1"}, "[3]": {"tested_on": "miR-16, miR-28, miR-182 in pancreatic (ASPC1) cells", "assay": "qRT-PCR of miR-16, miR-28, miR-182 in ASPC1 cells", "conditions": "ASPC1, 24-72 hours post incubation, vs DMSO", "method": "as §2, §3, §4, §1"}}, "data": [{"smiles": "O=c1[nH]c(Nc2ccc(N3CCNCC3)cn2)nc2cnccc12", "note": "[Compound 30]", "values": [{"measurement": "reduction of levels of mature miR-10b", "setting": "[1]", "value": "about 2 fold"}, {"measurement": "cellular levels of miR-16, miR-28, miR-182", "setting": "[2]", "value": "does not affect cellular levels"}, {"measurement": "cellular levels of miR-16, miR-28, miR-182", "setting": "[3]", "value": "does not affect cellular levels"}]}]}
